Reference: ChEMBL document CHEMBL1153238, “Spirodiketopiperazine-based CCR5 antagonists: Improvement of their pharmacokinetic profiles” (Bioorg Med Chem Lett, 2010)

Key:
[1] = system: Human immunodeficiency virus 1; experiment: Antiviral activity against HIV1 Ba-L(R5) infected in human PBMC by p24 antigen capture assay; conditions: Human immunodeficiency virus 1, Ba-L(R5)
Liver microsomes = experiment: Metabolic stability in rat liver microsomes assessed as compound remaining after 15 mins; format: ADME, Microsome; conditions: 0.25 h
Rattus norvegicus [2] = experiment: Half life in rat at 30 mg/kg, iv; format: ADME, organism-based; set-up: dose 30 mg/kg, route intravenous; conditions: in vivo
Rattus norvegicus [3] = experiment: Half life in rat at 30 mg/kg, po administered as single dose; format: ADME, organism-based; set-up: dose 30 mg/kg, route oral; conditions: in vivo
Rattus norvegicus [4] = experiment: AUC (0 to infinity) in rat at 30 mg/kg, iv; format: ADME, organism-based, Plasma; set-up: time infinity, dose 30 mg/kg, route intravenous; conditions: in vivo
[5] = Solubility of the compound; format: physicochemical
[6] = Cmax in rat at 30 mg/kg, po administered as single dose; format: ADME, organism-based; set-up: dose 30 mg/kg, route oral; conditions: in vivo
Rattus norvegicus [7] = experiment: AUC (0 to infinity) in rat at 30 mg/kg, po administered as single dose; format: ADME, organism-based, Plasma; set-up: time infinity, dose 30 mg/kg, route oral; conditions: in vivo
Rattus norvegicus [8] = experiment: Bioavailability in rat at 30 mg/kg, po administered as single dose; format: ADME, organism-based; conditions: in vivo
[9] = target: C-C chemokine receptor type 5 (Homo sapiens, UniProt P51681); experiment: Antagonist activity at human CCR5 receptor overexpressed in CHO cells assessed as inhibition of MIP-1-alpha-induced calcium mobilization; format: functional, cell-based
Chain of C-C chemokine receptor type 5 (P51681 whole entry): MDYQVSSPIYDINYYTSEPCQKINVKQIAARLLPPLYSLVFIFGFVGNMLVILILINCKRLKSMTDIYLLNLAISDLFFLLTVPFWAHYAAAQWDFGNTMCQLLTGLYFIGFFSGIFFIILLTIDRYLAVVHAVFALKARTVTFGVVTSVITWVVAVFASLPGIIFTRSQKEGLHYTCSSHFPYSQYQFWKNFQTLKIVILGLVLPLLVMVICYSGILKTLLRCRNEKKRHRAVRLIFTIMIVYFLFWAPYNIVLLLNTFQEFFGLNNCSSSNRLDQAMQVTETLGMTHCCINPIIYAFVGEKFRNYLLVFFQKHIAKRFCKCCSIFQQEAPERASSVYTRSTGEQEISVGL

In the case of `Cc1c(O)cccc1C(=O)N[C@@H](CSc1ccccc1)[C@H](O)CN1C[C@H]2CCCC[C@H]2C[C@H]1C(=O)NC(C)(C)C`, the IC50 [1] is reported as 12 nM.

For `CCCCN1C(=O)C(CC2CCCCC2)NC(=O)C12CCN(Cc1ccc(Oc3ccccc3)cc1)CC2.Cl` (racemic), the Stability (Liver microsomes) was 33%, the t1/2 (Rattus norvegicus [2]) was 0.332 h and the t1/2 (Rattus norvegicus [3]) was 1.72 h. For the same molecule, the AUC (Rattus norvegicus [4]) was 400 ng·h/mL, the solubility [5] was less than 5 µM and the Cmax [6] was 16.7 ng/mL. It also gave an AUC (Rattus norvegicus [7]) of 74.4 ng·h/mL and an F (Rattus norvegicus [8]) of 1.9%.

`CCCCN1C(=O)C(CC(C)C)NC(=O)C12CCN(Cc1ccc3c(c1)OCCO3)CC2` (racemic) showed an IC50 [9] of 180 nM.
